Experimental data from US10112918B2, “15-oxospiramilactone derivatives, preparation method and uses thereof” (Kunming Institute of Botany, The Chinese Academy of Sciences, priority 2013, dated 2018).
Read-outs that look alike come from different tables or passages of the source.

Assays:
Format in all cases: cell-based
[1] = tested on: Wnt signaling pathway (Top-Flash reporter gene); assay: Top-Flash Wnt reporter gene assay in HEK293T cells with Wnt3a conditioned medium
How it was run: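 IC50 is the concentration giving relative residual reporter activity of 0.5 by 4-parameter logistic fit, after subtracting conditioned-medium DMSO background and normalizing to Wnt-induced signal. Luciferase read from HEK293T carrying TOP-flash and GFP internal standard, exposed 6 h to L-cell Wnt3a conditioned medium plus compound.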

[2] = tested on: A-549 (Human lung adenocarcinoma cells); assay: MTT inhibition of tumor cell growth, A-549; conditions: Homo sapiens, A549, 48 h
How it was run: (§1)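 48 h MTT growth assay, 37° C, triplicate wells. Seeding 5000-10000 cells/well in 10% FBS medium (DMEM or RPMI1640); primary screen 40 μM, then 5-point gradient. A595 after SDS solubilisation; IC50 by Reed and Muench two-point method.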

[3] = tested on: SW-480 (human colon cancer cells); assay: MTT inhibition of tumor cell growth, SW-480; conditions: Homo sapiens, SW480, 48 h
How it was run: as §1

[4] = tested on: SMMC-7721 (human hepatoma cells); assay: MTT inhibition of tumor cell growth, SMMC-7721; conditions: Homo sapiens, SMMC-7721, 48 h
How it was run: as §1

[5] = tested on: HL-60 (human promyelocytic leukemia cells); assay: MTT inhibition of tumor cell growth, HL-60; conditions: Homo sapiens, HL-60, 48 h
How it was run: as §1

[6] = Table 1, 7-hydroxy derivatives of S-3
[7] = Table 2, derivatives having potential Michael reaction acceptor
[8] = Table 3, single Michael reaction acceptor, modified lactonic ring
[9] = Table 4, derivatives obtained by reduction of the lactonic ring
[10] = Table 5, derivatives having double Michael reaction acceptor
[11] = Table 7 (first), alkaloid derivatives

Question: Which results are given for `C=C1C(=O)[C@]23CC[C@H]1CC2[C@@]12CCC[C@@](C)(COC1=O)C2C[C@H]3O` (some centres unmarked) [Compound 1, 15-oxospiramilactone]?
Answer: IC50 ([1]; Homo sapiens, HEK-293T, 6 h, Table 7 (second), derivatives modified on 7-hydroxyl of S-3, HEK293T, Wnt3a conditioned medium, 6 h, read-out: IC50 (μM), inhibitory activity on the Wnt signaling pathway): 18.4 ± 1.82 µM; IC50 ([1]; Homo sapiens, HEK-293T, 6 h, Table 8, HEK293T, Wnt3a conditioned medium, 6 h, read-out: IC50 (μM), inhibitory activity on the Wnt signaling pathway): 18.7 ± 0.58 µM; IC50 ([1]; Homo sapiens, HEK-293T, 6 h, Table 9, HEK293T, Wnt3a conditioned medium, 6 h, read-out: IC50(μM), inhibitory activity on the Wnt signaling pathway): 18 ± 0.28 µM; IC50 ([1]; Homo sapiens, HEK-293T, 6 h, Table 10, HEK293T, Wnt3a conditioned medium, 6 h, read-out: IC50 (μM), inhibitory activity on the Wnt signaling pathway): 13.9 ± 2.01 µM; IC50 ([1]; Homo sapiens, HEK-293T, 6 h, Table 11, HEK293T, Wnt3a conditioned medium, 6 h, read-out: IC50 (μM), inhibitory activity on the Wnt signaling pathway): 22.5 ± 0.56 µM; IC50 ([1]; Homo sapiens, HEK-293T, footnotes of Tables 8 and 9: S-3 control in the run of the compounds marked a or b, read-out: corresponding IC50 value of S-3 (Wnt signaling pathway)): 18.4 µM; IC50 ([1]; footnotes of Tables 8 and 9: S-3 control in the run of the compounds marked a or b, listed as S-3, read-out: corresponding IC50 value of S-3 (Wnt signaling pathway)): 15.3 µM; IC50 [2, 6]: 3.22 µM; IC50 [2, 7]: 3.22 µM; IC50 [2, 8]: 3.22 µM; IC50 [2, 9]: 3.22 µM; IC50 [2, 10]: 3.22 µM; IC50 [2, 11]: 3.22 µM; IC50 ([3]; Table 1, 7-hydroxy derivatives of S-3, read-out: IC50 SW-480): 3.58 µM; IC50 ([3]; Table 2, derivatives having potential Michael reaction acceptor, read-out: IC50 SW-480): 3.58 µM; IC50 ([3]; Table 3, single Michael reaction acceptor, modified lactonic ring, read-out: IC50 SW-480): 3.58 µM; IC50 ([3]; Table 4, derivatives obtained by reduction of the lactonic ring, read-out: IC50 SW-480): 3.58 µM; IC50 ([3]; Table 5, derivatives having double Michael reaction acceptor, read-out: IC50 SW-480): 3.58 µM; IC50 ([3]; Table 6, 7-hydroxyl derivatives and controls, read-out: IC50 SW-480, 7-hydroxyl derivatives): 2.99 µM; IC50 ([3]; Table 7 (first), alkaloid derivatives, read-out: IC50 SW-480): 3.58 µM; IC50 [4, 6]: 3.96 µM; IC50 [4, 7]: 3.96 µM; IC50 [4, 8]: 3.96 µM; IC50 [4, 9]: 3.96 µM; IC50 [4, 10]: 3.96 µM; IC50 [4, 11]: 3.96 µM; IC50 [5, 6]: 6.36 µM; IC50 [5, 7]: 6.36 µM; IC50 [5, 8]: 6.36 µM; IC50 [5, 9]: 6.36 µM; IC50 [5, 10]: 6.36 µM; IC50 [5, 11]: 6.36 µM
